Source: article PMC10583824, “The rational design of ARUK2007145, a dual inhibitor of the α and γ isoforms of the lipid kinase phosphatidylinositol 5-phosphate 4-kinase (PI5P4K)” (RSC Medicinal Chemistry, 2023)

What was measured:
PI5P4Kα [1] = molecular target: T1, PI5P4Kα (Homo sapiens, UniProt P48426); assay: biochemical
T1 sequence (P48426 1-406): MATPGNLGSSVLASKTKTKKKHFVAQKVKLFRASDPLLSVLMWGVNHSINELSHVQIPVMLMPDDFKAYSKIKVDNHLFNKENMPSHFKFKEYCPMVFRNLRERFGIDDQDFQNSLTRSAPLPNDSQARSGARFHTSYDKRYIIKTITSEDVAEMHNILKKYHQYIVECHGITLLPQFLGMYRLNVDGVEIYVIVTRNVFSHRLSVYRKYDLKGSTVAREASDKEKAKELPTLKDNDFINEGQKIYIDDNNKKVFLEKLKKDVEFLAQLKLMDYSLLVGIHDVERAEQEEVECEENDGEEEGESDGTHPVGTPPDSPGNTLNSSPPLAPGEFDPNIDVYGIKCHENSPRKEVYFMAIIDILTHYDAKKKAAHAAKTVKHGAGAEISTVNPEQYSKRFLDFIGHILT

PI5P4Kγ+ [2] = molecular target: T2, PI5P4Kγ+ (Homo sapiens, UniProt Q8TBX8, D138G/D197E/E133P/E135D/E153T/E196G/G139A/N195G/S132L/S134N); assay: biochemical
T2 sequence (Q8TBX8 with tags, fused parts or gaps INS131LPN/S132D/E133S/S134Q/E135A/G136R/D138G/G139A/E153T/N195G/E196G/D197E): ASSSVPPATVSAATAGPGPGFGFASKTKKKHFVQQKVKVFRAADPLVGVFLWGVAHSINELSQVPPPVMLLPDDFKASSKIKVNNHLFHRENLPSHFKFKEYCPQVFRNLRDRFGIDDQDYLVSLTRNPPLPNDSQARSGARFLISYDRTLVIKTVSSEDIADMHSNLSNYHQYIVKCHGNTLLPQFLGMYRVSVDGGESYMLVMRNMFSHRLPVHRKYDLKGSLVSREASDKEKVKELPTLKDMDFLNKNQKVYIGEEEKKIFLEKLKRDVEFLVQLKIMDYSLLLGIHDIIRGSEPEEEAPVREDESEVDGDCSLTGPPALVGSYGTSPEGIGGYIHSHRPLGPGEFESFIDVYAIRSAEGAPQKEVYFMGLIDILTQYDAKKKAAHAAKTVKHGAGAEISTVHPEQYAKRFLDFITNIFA

PI5P4Kγ+ [3] = settings: ratio PI5P4Kα IC50 / PI5P4Kγ+ IC50, ADP-Glo
PI5P4Kα [4] = molecular target: T1, PI5P4Kα; settings: for PI5P4Kα pIC50: footnote a: inconsistent replicates, value shown is upper limit; for ADP-Glo pIC50 PI5P4Kα: Table S1, two decimals, asterisk not explained
[5] = ADP-Glo pIC50 PI5P4Kα, Table S1, two decimals, asterisk not explained
[6] = ADP-Glo pIC50 PI5P4Kγ+, Table S1, two decimals, asterisk not explained
[7] = PI5P4Kγ+ pIC50, ADP-Glo, footnote a: inconsistent replicates, value shown is upper limit

Structure (SMILES) | IC50 (PI5P4Kα [1]; [5]) [nM] | IC50 (PI5P4Kγ+ [2]; [6]) [nM] | further results
N#Cc1cc2c(Nc3ccc(S(=O)(=O)C4CCCC4)cc3)ncnc2s1 | 4680 | 49 | –
Cc1cc2c(Nc3ccc(N4CC(C)(C)CC4=O)cc3)ncnc2s1 | 1170 | 132 | –
Cc1cc(Nc2ncnc3sc(-c4cccnc4Cl)cc23)ccc1Cl [Cc1cc(ccc1Cl)Nc1ncnc2sc(cc12)-c1cccnc1Cl] | 2950 | 389 | –
CSc1ccc(Nc2ncnc3cc(-c4cccnc4C)sc23)cc1 [CSc1ccc(cc1)Nc1ncnc2cc(sc12)-c1cccnc1C] | 77.6 | 17 | –
CS(=O)(=O)c1ccc(Nc2ncnc3sc(-c4ccc(F)cc4F)cc23)cc1 | 1100 | 85.1 | –
Cc1cccc(Nc2ncnc3sc(-c4cccnc4Cl)cc23)c1 [Cc1cccc(c1)Nc1ncnc2sc(cc12)-c1cccnc1Cl] | 1450 | 2340 | –
Cc1cc2c(Nc3ccc(N4CCCC4=O)c(C)c3)ncnc2s1 [Cc1cc2c(ncnc2s1)Nc1ccc(c(c1)C)N1CCCC1=O] | 5370 | 200 | –
CS(=O)(=O)c1ccc(Nc2ncnc3sc(-c4cn[nH]c4)cc23)cc1 [Compound 7] | – | 15.5 | Fold-selectivity (α IC50/γ IC50) (PI5P4Kγ+ [3]): 79; IC50 (PI5P4Kγ+ [2]; [7]): 15.8 nM; PI5P4Kα pIC50 (PI5P4Kα [4]; ADP-Glo): 5.9; ADP-Glo pIC50 PI5P4Kα (PI5P4Kα [4]): 5.88
Cc1ccc(Nc2ncnc3sc(-c4cccnc4C)cc23)cc1C [Compound 18] | – | 1350 | Fold-selectivity (α IC50/γ IC50) (PI5P4Kγ+ [3]): 0.25; IC50 (PI5P4Kγ+ [2]; [7]): 1260 nM; PI5P4Kα pIC50 (PI5P4Kα [4]; ADP-Glo): 6.5; ADP-Glo pIC50 PI5P4Kα (PI5P4Kα [4]): 6.48
Cc1ncccc1-c1cc2ncnc(Nc3ccc(S(F)(F)(F)(F)F)cc3)c2s1 [Compound 40] | – | – | Fold-selectivity (α IC50/γ IC50) (PI5P4Kγ+ [3]): 6.3; IC50 (PI5P4Kγ+ [2]; [7]): 100 nM; PI5P4Kα pIC50 (PI5P4Kα [4]; ADP-Glo): 6.2
CS(=O)(=O)c1ccc(Nc2ncnc3sc(-c4ccc(F)cc4)cc23)cc1 | 9770 | 52.5 | –
COc1ccc(-n2ncc3c(Nc4ccc(OC)c(Cl)c4)ncnc32)cc1 [Compound 4, reference compound] | – | – | Fold-selectivity (α IC50/γ IC50) (PI5P4Kγ+ [3]): 0.032; IC50 (PI5P4Kγ+ [2]; [7]): 12600 nM
Cc1ncccc1-c1cc2c(Nc3ccc(C4CC4)cc3)ncnc2s1 [Compound 24] | – | 110 | Fold-selectivity (α IC50/γ IC50) (PI5P4Kγ+ [3]): 2.5; IC50 (PI5P4Kγ+ [2]; [7]): 100 nM; PI5P4Kα pIC50 (PI5P4Kα [4]; ADP-Glo): 6.6; ADP-Glo pIC50 PI5P4Kα (PI5P4Kα [4]): 6.62
CS(=O)(=O)c1ccc(Nc2ncnc3ccsc23)cc1 [Compound 36] | – | – | IC50 (PI5P4Kγ+ [2]; [7]): 50.1 nM; PI5P4Kα inhibition (in words) (PI5P4Kα [4]; ADP-Glo): undetectable; PI5P4Kα pIC50 (PI5P4Kα [4]; ADP-Glo): <4.3
COc1cnccc1-c1cc2ncnc(Nc3ccc(SC)cc3)c2s1 [COc1cnccc1-c1cc2ncnc(c2s1)Nc1ccc(cc1)SC] | 490 | 53.7 | –
CS(=O)(=O)c1ccc(Nc2ncnc3sc(-c4ccncc4F)cc23)cc1 [Compound 12] | – | – | Fold-selectivity (α IC50/γ IC50) (PI5P4Kγ+ [3]): >250; IC50 (PI5P4Kγ+ [2]; [7]): 100 nM; PI5P4Kα pIC50 (PI5P4Kα [4]; ADP-Glo): <4.6
CSc1ccc(Nc2ncnc3cc(-c4c(C)noc4C)sc23)cc1 [CSc1ccc(cc1)Nc1ncnc2cc(sc12)-c1c(noc1C)C] | 22.4 | 32.4 | –
CS(=O)(=O)c1ccc(Nc2ncnc3sc(C(F)F)cc23)cc1 | 8710 | 166 | –
CS(=O)(=O)c1ccc(Nc2ncnc3sc(-c4cccnc4F)cc23)cc1 [Compound 16] | 1480 | – | Fold-selectivity (α IC50/γ IC50) (PI5P4Kγ+ [3]): 50; IC50 (PI5P4Kα [1]; PI5P4Kα pIC50, ADP-Glo, footnote a: inconsistent replicates, value shown is upper limit): ≥ 1580 nM; IC50 (PI5P4Kγ+ [2]; [7]): 31.6 nM
CSc1ccc(Nc2ncnc3sc(-c4c(C)noc4C)cc23)cc1 [Compound 30] | – | 24.5 | Fold-selectivity (α IC50/γ IC50) (PI5P4Kγ+ [3]): 6.3; IC50 (PI5P4Kγ+ [2]; [7]): 25.1 nM; PI5P4Kα pIC50 (PI5P4Kα [4]; ADP-Glo): 6.8; ADP-Glo pIC50 PI5P4Kα (PI5P4Kα [4]): 6.81
O=C(NCc1cc2c(Nc3ccc(S(=O)(=O)C4CCCC4)cc3)ncnc2s1)c1ccc(C2(C(F)(F)F)N=N2)cc1 | 5250 | 39.8 | –
CSc1ccc(Nc2ncnc3sc(C)cc23)cc1 [CSc1ccc(cc1)Nc1ncnc2sc(cc12)C] | 2340 | 178 | –
COc1cnccc1-c1cc2c(Nc3ccc(SC)cc3)ncnc2s1 [COc1cnccc1-c1cc2c(ncnc2s1)Nc1ccc(cc1)SC] | 129 | 15.1 | –
CN(C(=O)c1csc2ncnc(Nc3ccc(S(C)(=O)=O)cc3)c12)c1ccccc1 [Compound 34] | – | – | Fold-selectivity (α IC50/γ IC50) (PI5P4Kγ+ [3]): 50; IC50 (PI5P4Kγ+ [2]; [7]): 50.1 nM; PI5P4Kα pIC50 (PI5P4Kα [4]; ADP-Glo): 5.6
Cc1c(C(=O)O)sc2ncnc(Nc3ccc(C(C)C)cc3)c12 [CC(C)c1ccc(cc1)Nc1ncnc2sc(c(c12)C)C(=O)O] | 2750 | – | –
CS(=O)(=O)c1ccc(Nc2ncnc3scc(C4CC4)c23)cc1 [Compound 33] | – | – | IC50 (PI5P4Kγ+ [2]; [7]): 100 nM; PI5P4Kα pIC50 (PI5P4Kα [4]; ADP-Glo): <4.8

Structure (SMILES) | IC50 (PI5P4Kα [1]; [5]) [nM] | IC50 (PI5P4Kγ+ [2]; [6]) [nM] | further results
Cc1ccc(Nc2ncnc3sc(-c4cccnc4C)cc23)c(C)c1 [Compound 19] | – | 4370 | Fold-selectivity (α IC50/γ IC50) (PI5P4Kγ+ [3]): 0.79; IC50 (PI5P4Kγ+ [2]; [7]): 3980 nM; PI5P4Kα pIC50 (PI5P4Kα [4]; ADP-Glo): 5.5; ADP-Glo pIC50 PI5P4Kα (PI5P4Kα [4]): 5.48
CSc1ccc(Nc2ncnc3sc(-c4cnoc4)cc23)cc1 [Compound 29] | – | 42.7 | Fold-selectivity (α IC50/γ IC50) (PI5P4Kγ+ [3]): 6.0; IC50 (PI5P4Kγ+ [2]; [7]): 39.8 nM; PI5P4Kα pIC50 (PI5P4Kα [4]; ADP-Glo): 6.6; ADP-Glo pIC50 PI5P4Kα (PI5P4Kα [4]): 6.59
CN(C)C(=O)c1cc2c(Nc3ccc(S(C)(=O)=O)cc3)ncnc2s1 | 6920 | 562 | –
Cc1cc(Cl)ccc1Nc1ncnc2sc(-c3cccnc3Cl)cc12 [Cc1cc(ccc1Nc1ncnc2sc(cc12)-c1cccnc1Cl)Cl] | 5250 | 7940 | –
CCc1ccc(Nc2ncnc3sc(-c4cccnc4C)cc23)cc1 [Compound 23] | – | 389 | Fold-selectivity (α IC50/γ IC50) (PI5P4Kγ+ [3]): 1.6; IC50 (PI5P4Kγ+ [2]; [7]): 398 nM; PI5P4Kα pIC50 (PI5P4Kα [4]; ADP-Glo): 6.2; ADP-Glo pIC50 PI5P4Kα (PI5P4Kα [4]): 6.22
COc1cnccc1-c1cc2c(Nc3ccc(C)c(C)c3)ncnc2s1 | 275 | 631 | –
Cc1ccc(Nc2ncnc3sc(-c4cccnc4C)cc23)cc1 [Compound 22] | – | 1550 | Fold-selectivity (α IC50/γ IC50) (PI5P4Kγ+ [3]): 0.4; IC50 (PI5P4Kγ+ [2]; [7]): 1580 nM; PI5P4Kα pIC50 (PI5P4Kα [4]; ADP-Glo): 6.2; ADP-Glo pIC50 PI5P4Kα (PI5P4Kα [4]): 6.22
CC(=O)NCc1cc2c(Nc3ccc(S(=O)(=O)C4CCCC4)cc3)ncnc2s1 | 4370 | 12.6 | –
CSc1ccc(Nc2ncnc3sc(-c4cncnc4)cc23)cc1 [CSc1ccc(cc1)Nc1ncnc2sc(cc12)-c1cncnc1] | 234 | 29.5 | –
CCc1cc2c(Nc3ccc(N4CCCC4=O)c(C)c3)ncnc2s1 [CCc1cc2c(ncnc2s1)Nc1ccc(c(c1)C)N1CCCC1=O] | 9770 | 288 | –
CCc1ccc(Nc2ncnc3sc(-c4cccnc4Cl)cc23)cc1 [CCc1ccc(cc1)Nc1ncnc2sc(cc12)-c1cccnc1Cl] | 324 | 151 | –
CS(=O)(=O)c1ccc(Nc2ncnc3sc(-c4cnoc4)cc23)cc1 | 2190 | 36.3 | –
Cc1ccc(Nc2ncnc3sc(-c4cccnc4Cl)cc23)cc1 [Cc1ccc(cc1)Nc1ncnc2sc(cc12)-c1cccnc1Cl] | 263 | 427 | –
COc1cnccc1-c1cc2c(Nc3ccc(C4CC4)cc3)ncnc2s1 | 269 | 63.1 | –
Cc1cc2c(Nc3ccc(S(=O)(=O)C4CC4)cc3)ncnc2s1 | 7760 | 75.9 | –
Cc1cc2c(Nc3ccc(Br)cc3)ncnc2s1 [Cc1cc2c(ncnc2s1)Nc1ccc(cc1)Br] | 6920 | – | –
COc1cnccc1-c1cc2c(Nc3ccc(C)cc3C)ncnc2s1 [COc1cnccc1-c1cc2c(ncnc2s1)Nc1ccc(cc1C)C] | 5010 | 7410 | –
COc1cnccc1-c1cc2c(Nc3ccc(Cl)cc3)ncnc2s1 [COc1cnccc1-c1cc2c(ncnc2s1)Nc1ccc(cc1)Cl] | 1320 | 63.1 | –
Cc1ccc(Nc2ncnc3sc(-c4cccnc4Cl)cc23)cc1C [Cc1ccc(cc1C)Nc1ncnc2sc(cc12)-c1cccnc1Cl] | 490 | 8510 | –
Cc1ccc(Nc2ncnc3sc(-c4cccnc4Cl)cc23)c(C)c1 | 2950 | 8320 | –
CC(=O)N(C)c1ccc(Nc2ncnc3sc(C)cc23)cc1 [CN(C(=O)C)c1ccc(cc1)Nc1ncnc2sc(cc12)C] | 1120 | – | –
COc1ncccc1-c1cc2c(Nc3ccc(S(C)(=O)=O)cc3)ncnc2s1 | 2290 | 28.8 | –
COc1cc(Nc2ncnc3sc(C)cc23)ccc1N1CCCC1=O [COc1cc(ccc1N1CCCC1=O)Nc1ncnc2sc(cc12)C] | 7240 | 214 | –
Clc1ncccc1-c1cc2c(Nc3ccc(C4CC4)cc3)ncnc2s1 | 195 | 67.6 | –
COc1cnccc1-c1cc2c(Nc3ccc(C4CC4)cc3)ncnc2[nH]1 | 240 | 85.1 | –
